Experimental data taken from US9573913B2, “Cathepsin cysteine protease inhibitors” (Merck Sharp & Dohme Corp., priority 2013, dated 2017).

Assays:
human cathepsin K = human cathepsin K (UniProt P43236); test: Cathepsin K Assay (hrbCat K); assay type: biochemical; conditions: Z-Leu-Arg-AMC substrate, pH 5.5, 15 min preincubation; read-out: hrbCat K (IP (nM))
Method: Cathepsin K Assay (hrbCat K)
(§1) Then 0.5 μL of DMSO from each dilution were added to 18.75 μL of assay buffer (MES, 50 mM (pH 5.5); EDTA, 2.5 mM; DTT, 2.5 mM and 10% DMSO) containing human cathepsin K (0.4 nM) in assay buffer solution. The assay solutions were mixed for 5-10 seconds on a shaker plate and incubated for 15 minutes at room temperature. Z-Leu-Arg-AMC (8 μM) in 6.25 μL of assay buffer was added to the assay solutions. Hydrolysis of the coumarin leaving group (AMC) was followed by spectrofluorometry (Exλ=360 nm; Emλ=460 nm) for 30 minutes. Percent of inhibition were calculated by fitting experimental values to standard mathematical model for dose response curve.

human cathepsin F = target: T1, human cathepsin F (Homo sapiens, UniProt Q9UBX1); test: Cathepsin F assay (hCat F); assay type: biochemical; conditions: Z-Phe-Arg-AMC substrate, pH 5.5, 15 min preincubation; read-out: hCat F (IP (nM))
T1 sequence (Q9UBX1 271-484): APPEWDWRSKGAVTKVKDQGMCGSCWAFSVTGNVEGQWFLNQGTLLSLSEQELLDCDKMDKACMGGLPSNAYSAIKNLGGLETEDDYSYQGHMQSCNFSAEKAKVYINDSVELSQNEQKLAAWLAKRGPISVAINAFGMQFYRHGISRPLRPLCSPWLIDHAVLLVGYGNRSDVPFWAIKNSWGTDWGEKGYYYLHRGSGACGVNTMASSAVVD
Method: Cathepsin F assay (hCat F)
as §1, with “Serial dilutions (1/3) from 500 μM down to 0.025 μM of test compounds were prepared in dimethyl sulfoxide (DMSO). Then” for “Then”, “F (10” for “K (0.4”, “Z-Phe-Arg-AMC” for “Z-Leu-Arg-AMC”, “20” for “30”

Structure (SMILES)	IC50 (human cathepsin K) [nM]	IC50 (human cathepsin F) [nM]
CC(C#N)NC(=O)[C@@H]1C[C@@H](F)CC[C@H]1c1nc(-c2cncc(F)c2)sc1-c1ccc(N2CCS(=O)(=O)CC2)cc1 (single isomer, unassigned) [Example 126, (1R,2R,5S)-N-((S or R)-1-cyanoethyl)-2-(5-(4-(1,1-dioxidothiomorpho-lino)phenyl)-2-(5-fluoropyridin-3-yl)thiazol-4-yl)-5-fluorocyclohexane-carboxamide]	1.7	1760
CC(C#N)NC(=O)[C@@H]1C[C@@H](F)CC[C@H]1c1nc(-c2cncc(F)c2)sc1-c1ccc(N2CCS(=O)(=O)CC2)cc1 (single isomer, unassigned) [Example 127, (1R,2R,5S)-N-((R or S)-1-cyanoethyl)-2-(5-(4-(1,1-dioxidothiomorpho-lino)phenyl)-2-(5-fluoropyridin-3-yl)thiazol-4-yl)-5-fluorocyclohexane-carboxamide]	42.5	≥ 10000
N#CC(NC(=O)[C@@H]1CCCC[C@H]1c1nc(-c2ccc(F)cn2)sc1-c1ccc(N2CCS(=O)(=O)CC2)cc1)C1CCOCC1 (single isomer, unassigned) [Example 185, (1R,2R)-N-((R or S)-cyano(tetrahydro-2H-pyran-4-yl)methyl)-2-(5-(4-(1,1-dioxidothiomorpho-lino)phenyl)-2-(5-fluoropyridin-2-yl)thiazol-4-yl)cyclohexane-carboxamide]	1.3	695
N#CC(NC(=O)[C@@H]1CCCC[C@H]1c1nc(-c2ccc(F)cn2)sc1-c1ccc(N2CCS(=O)(=O)CC2)cc1)C1CCOCC1 (single isomer, unassigned) [Example 186, (1R,2R)-N-((S or R)-cyano(tetrahydro-2H-pyran-4-yl)methyl)-2-(5-(4-(1,1-dioxidothiomorpho-lino)phenyl)-2-(5-fluoropyridin-2-yl)thiazol-4-yl)cyclohexane-carboxamide]	1900	≥ 10000
CC(C)C(C#N)NC(=O)[C@@H]1CCCC[C@H]1c1nc(-c2ccc(F)cn2)sc1-c1ccc(N2CCS(=O)(=O)CC2)cc1 (single isomer, unassigned) [Example 187, (1R,2R)-N-((S or R)-1-cyano-2-methylpropyl)-2-(5-(4-(1,1-dioxidothiomorpho-lino)phenyl)-2-(5-fluoropyridin-2-yl)thiazol-4-yl)cyclohexane-carboxamide]	3820	≥ 10000
CCC(C#N)NC(=O)[C@@H]1CCCC[C@H]1c1nc(-c2ccc(F)cn2)sc1-c1ccc(N2CCS(=O)(=O)CC2)cc1 (single isomer, unassigned) [Example 188, (1R,2R)-N-((S or R)-1-cyanopropyl)-2-(5-(4-(1,1-dioxidothiomorpho-lino)phenyl)-2-(5-fluoropyridin-2-yl)thiazol-4-yl)cyclohexane-carboxamide]	15.3	6710
CC(C)C(C#N)NC(=O)[C@@H]1CCCC[C@H]1c1nc(-c2ccc(F)cn2)sc1-c1ccc(N2CCS(=O)(=O)CC2)cc1 (single isomer, unassigned) [Example 191, (1R,2R)-N-((R or S)-1-cyano-2-methylpropyl)-2-(5-(4-(1,1-dioxidothiomorpho-lino)phenyl)-2-(5-fluoropyridin-2-yl)thiazol-4-yl)cyclohexane-carboxamide]	1.5	691
N#CC(CC(F)(F)F)NC(=O)[C@@H]1CCCC[C@H]1c1nc(-c2ccc(F)cn2)sc1-c1ccc(N2CCS(=O)(=O)CC2)cc1 (single isomer, unassigned) [Example 194, (1R,2R)-N-((S or R)-1-cyano-3,3,3-trifluoropropyl)-2-(5-(4-(1,1-dioxidothiomorpho-lino)phenyl)-2-(5-fluoropyridin-2-yl)thiazol-4-yl)cyclohexane-carboxamide]	3.1	1920
CC1CC1(C#N)NC(=O)[C@@H]1CCCC[C@H]1c1nc(-c2ccc(F)cn2)sc1-c1ccc(N2CCS(=O)(=O)CC2)cc1 (single isomer, unassigned) [Example 202, (1R,2R)-N-((1S,2S or 1S,2R or 1R,2S or 1R,2R)-1-cyano-2-methylcyclopropyl)-2-(5-(4-(1,1-dioxidothiomorpho-lino)phenyl)-2-(5-fluoropyridin-2-yl)thiazol-4-yl)cyclohexane-carboxamide]	6.6	≥ 10000
N#CC1(NC(=O)[C@@H]2C[C@@H](F)CC[C@H]2c2nc(C3CC(F)C3)sc2-c2ccc(N3CCS(=O)(=O)CC3)cc2)CC1 (single isomer, unassigned) [Example 233, (1R,2R,5S)-N-(1-cyanocyclopropyl)-2-(5-(4-(1,1-dioxidothiomorpho-lino)phenyl)-2-((1S,3S or 1R,3R)-3-fluorocyclobutyl)thiazol-4-yl)-5-fluorocyclohexane-carboxamide]	6	≥ 10000
C[C@@H](C#N)NC(=O)[C@@H]1C[C@@H](F)CC[C@H]1c1nc(C2CC(F)C2)sc1-c1ccc(N2CCS(=O)(=O)CC2)cc1 (single isomer, unassigned) [Example 234, (1R,2R,5S)-N-((S)-1-cyanoethyl)-2-(5-(4-(1,1-dioxidothiomorpho-lino)phenyl)-2-((1S,3S or 1R,3R)-(3-fluorocyclobutyl)thiazol-4-yl)-5-fluorocyclohexane-carboxamide]	4	6100

These reach a lower IC50 (human cathepsin K). Values come first.

IC50 (human cathepsin K) [nM]	IC50 (human cathepsin F) [nM]	Structure (SMILES)
0.8	371	N#CC1(NC(=O)[C@@H]2CC3CC3C[C@H]2c2nc(-c3ccc(F)cn3)sc2-c2ccc(N3CCS(=O)(=O)CC3)cc2)CC1 (single isomer, unassigned) [Example 105, (1R or 1S,3R,4R,6S or 6R)-N-(1-cyanocyclopropyl)-4-(5-(4-(1,1-dioxidothiomorpho-lino)phenyl)-2-(5-fluoropyridin-2-yl)thiazol-4-yl)bicyclo[4.1.0] heptane-3-carboxamide]
0.6	258	N#CC1(NC(=O)[C@@H]2CC3CC3C[C@H]2c2nc(-c3cncc(Cl)c3)sc2-c2ccc(N3CCS(=O)(=O)CC3)cc2)CC1 (single isomer, unassigned) [Example 109, (1S or R,3R,4R,6R or S)-4-(2-(5-chloropyridin-3-yl)-5-(4-(1,1-dioxidothiomorpho-lino)phenyl)thiazol-4-yl)-N-(1-cyanocyclopropyl) bicyclo[4.1.0]heptane-3-carboxamide]
0.7	225	N#CC1(NC(=O)[C@@H]2CC3CC3C[C@H]2c2nc(-c3cncc(F)c3)sc2-c2ccc(N3CCS(=O)(=O)CC3)cc2)CC1 (single isomer, unassigned) [Example 111, (1S or 1R,3R,4R,6R or 6S)-N-(1-cyanocyclopropyl)-4-(5-(4-(1,1-dioxidothiomorpho-lino)phenyl)-2-(5-fluoropyridin-3-yl)thiazol-4-yl)bicyclo[4.1.0] heptane-3-carboxamide]
0.9	439	N#CC1(NC(=O)[C@@H]2CC3CC3C[C@H]2c2nc(-c3cncc(F)c3)sc2-c2ccc(N3CCS(=O)(=O)CC3)cc2)CC1 (single isomer, unassigned) [Example 112, (1R or 1S,3R,4R,6S or 6R)-N-(1-cyanocyclopropyl)-4-(5-(4-(1,1-dioxidothiomorpho-lino)phenyl)-2-(5-fluoropyridin-3-yl)thiazol-4-yl)bicyclo[4.1.0] heptane-3-carboxamide]
0.8	482	N#CC1(NC(=O)[C@@H]2CC3CC3C[C@H]2c2nc(-c3cncc(Cl)c3)sc2-c2ccc(N3CCS(=O)(=O)CC3)cc2)CC1 (single isomer, unassigned) [Example 113]
0.4	103	CCC(C#N)NC(=O)[C@@H]1CCCC[C@H]1c1nc(-c2ccc(F)cn2)sc1-c1ccc(N2CCS(=O)(=O)CC2)cc1 (single isomer, unassigned) [Example 192, (1R,2R)-N-((R or S)-1-cyanopropyl)-2-(5-(4-(1,1-dioxidothiomorpho-lino)phenyl)-2-(5-fluoropyridin-2-yl)thiazol-4-yl)cyclohexane-carboxamide]
0.6	21	N#CC(CC(F)(F)F)NC(=O)[C@@H]1CCCC[C@H]1c1nc(-c2ccc(F)cn2)sc1-c1ccc(N2CCS(=O)(=O)CC2)cc1 (single isomer, unassigned) [Example 193, (1R,2R)-N-((R or S)-1-cyano-3,3,3-trifluoropropyl)-2-(5-(4-(1,1-dioxidothiomorpho-lino)phenyl)-2-(5-fluoropyridin-2-yl)thiazol-4-yl)cyclohexane-carboxamide]
